The subject of this experiment is RSV Long wild type. Kind of experiment: Assay for compounds active against RSV (HEp2 cells, MTT cell viability). The settings on record: human respiratory syncytial virus, HEp-2.

≈ marks a conversion by molar mass, not a printed value.

A word on the EC50: it is the concentration at which the effect is half-maximal. The low end stands for an effect from little substance, the high end for a need for much substance.

Method: Graded concentrations of test compounds were prepared by serial dilution in 96 well tissue culture plates containing 100 μL per well of assay media (Eagles Minimal Essential Medium (MEM) supplemented with 2% foetal bovine serum and Glutamine alanyl-L-glutamine). […] 1.5×10^4 of the diluted cells were added to several individual wells of each 96 well plate which were designated uninfected control wells. The remaining cell suspension was exposed to infectious RSV by addition of sufficient virus to the suspension to yield a concentration of 0.4 plaque forming units per cell. The cell-virus suspension was mixed well by inversion and 100 μL immediately dispensed into the remaining wells of the 96 well plates. Assay plates were incubated in a 37° C. incubator for 5 days. Viral replication was quantified by determination of cell viability substantially as described by Watanabe and colleagues (Watanabe, W. et al., J. Virol. Methods, 48: 257-265, 1994). Briefly, 100 μL of 3 mg/mL MTT (3(4,5-dimethylthiazol-2-yl)-2,5-diphenyltetrazolium bromide) was added to each well and plates incubated at 37° C. in a 5% CO2 incubator for 2 hours. […] The extent of metabolism was measured via determination of absorbance using a computer-controlled microplate reader at 540 nm with a reference wavelength of 690 nm. […]

`NC(=O)c1ncn(C2O[C@H](CO)[C@@H](O)[C@H]2O)n1` (stereo partly drawn) [Ribavirin, 1-D-ribofuranosyl-1H-1,2,4-triazole-3-carboxamide]: the EC50 was determined as 5.54 µg/mL (≈ 22.7 µM).
